The source made the active and inactive calls. The rule behind the calls is not given here.
Tests used:
MDA-MB-468 = experiment: Antiproliferative activity against human MDA-MB-468 cells assessed as reduction in cell viability measured after 72 hrs by MTS assay; assay type: functional, cell-based
A549 = experiment: Antiproliferative activity against human A549 cells assessed as reduction in cell viability measured after 72 hrs by MTS assay; assay type: functional, cell-based
T47D = experiment: Antiproliferative activity against human T47D cells assessed as reduction in cell viability measured after 72 hrs by MTS assay; assay type: functional, cell-based
MCF7 = experiment: Antiproliferative activity against human MCF7 cells assessed as reduction in cell viability measured after 72 hrs by MTS assay; assay type: functional, cell-based
MDA-MB-231 = experiment: Antiproliferative activity against human MDA-MB-231 cells assessed as reduction in cell viability measured after 72 hrs by MTS assay; assay type: functional, cell-based
[1] = Binding affinity to goat tubulin by double reciprocal plot analysis; design: species or system Capra hircus
Capra hircus [2] = organism: Capra hircus; experiment: Binding affinity to goat tubulin assessed as increase in tubulin-colchicine fluorescence preincubated for 30 mins followed by colchicine addition measured after 60 mins by tryptophan fluorescence quenching assay
Capra hircus [3] = organism: Capra hircus; experiment: Binding affinity to goat tubulin by tryptophan fluorescence quenching assay
[4] = Homo sapiens, MDA-MB-468, 72 h, read-out: IC50
[5] = Homo sapiens, T47D, 72 h, read-out: IC50
[6] = Homo sapiens, MDA-MB-231, 72 h, read-out: IC50
[7] = Homo sapiens, MCF7, 72 h, read-out: IC50
[8] = Homo sapiens, A549, 72 h, read-out: IC50

Structure (SMILES)	IC50 (MDA-MB-468; [4]) [µM]	IC50 (A549; a549)	IC50 (T47D; [5]) [µM]	IC50 (MCF7; mcf7)	IC50 (MDA-MB-231; [6]) [µM]	IC50 (T47D; t47d)	IC50 (MDA-MB-231; mda-mb-231)	IC50 (MDA-MB-468; mda-mb-468)	IC50 (MCF7; [7]) [µM]	IC50 (A549; [8]) [µM]	Kd [1] [µM]	Activity (Capra hircus [2])	Activity (Capra hircus [3])
CC(C)c1ccc(C2NN=C3CCCC32)cc1 (centres undefined)	186	Not Active	129	Not Active	144								
CC(C)c1ccc(C2C3CCCC3=NN2S(C)(=O)=O)cc1 (centres undefined)	120	Not Active		Not Active		Not Active	Not Active						
COc1ccc(C2C3CCCC3=NN2S(=O)(=O)c2ccc([N+](=O)[O-])cc2)cc1 (centres undefined)		Not Active				Not Active	Not Active	Not Active	151				
COc1ccc(C2C3CCCC3=NN2S(=O)(=O)c2ccc(C)cc2)cc1 (centres undefined)		Not Active				Not Active	Not Active	Not Active	178				
CS(=O)(=O)N1N=C2CCCC2C1c1ccc(F)cc1 (centres undefined)	70.8				51.3	Not Active			75.9	81.3	127	Dose-dependent effect	
CC(C)c1ccc(C2C3CCCC3=NN2S(=O)(=O)c2ccc(Cl)cc2)cc1 (centres undefined)	15.5	Not Active		Not Active		Not Active	Not Active						
CC(C)c1ccc(C2C3CCCC3=NN2S(=O)(=O)c2ccc([N+](=O)[O-])cc2)cc1 (centres undefined)	28.2	Not Active		Not Active		Not Active	Not Active						
COc1ccc(C2C3CCCC3=NN2S(C)(=O)=O)cc1 (centres undefined)	1		0.8		8.7				15.8	19.1	85	Dose-dependent effect	
O=S(=O)(c1ccc(Cl)cc1)N1N=C2CCCC2C1c1ccc(F)cc1 (centres undefined)		Not Active	89.1	Not Active	9.3			Not Active					
Cc1ccc(S(=O)(=O)N2N=C3CCCC3C2c2ccc(F)cc2)cc1 (centres undefined)	3.8		3.3		1.1				50.1	5.8			Active
O=[N+]([O-])c1ccc(S(=O)(=O)N2N=C3CCCC3C2c2ccc(Cl)cc2)cc1 (centres undefined)	43.7	Not Active		Not Active	42.7	Not Active							
Clc1ccc(C2NN=C3CCCC32)cc1 (centres undefined)	10.2		29.5		25.1				51.3	47.9			
Cc1ccc(S(=O)(=O)N2N=C3CCCC3C2c2ccc(C(C)C)cc2)cc1 (centres undefined)	7.9	Not Active	40.7	Not Active	15.5								
COc1ccc(C2NN=C3CCCC32)cc1 (centres undefined)	20					Not Active	Not Active		24	44.7			
Fc1ccc(C2NN=C3CCCC32)cc1 (centres undefined)	14.8		37.2		30.9				38	30.9			
CC(=O)O[C@H]1C(=O)[C@@]2(C)[C@H]([C@H](OC(=O)c3ccccc3)[C@]3(O)C[C@H](OC(=O)[C@H](O)[C@@H](NC(=O)c4ccccc4)c4ccccc4)C(C)=C1C3(C)C)[C@]1(OC(C)=O)CO[C@@H]1C[C@@H]2O [PACLITAXEL]	0.2		0.2		0.1				0.1				

Source: ChEMBL document CHEMBL4425172, “Chemical synthesis, pharmacological evaluation and in silico analysis of new 2,3,3a,4,5,6-hexahydrocyclopenta[c]pyrazole derivatives as potential anti-mitotic agents” (Bioorg Med Chem Lett, 2016)
